In publication PMC12306498, “Microwave-assisted synthesis of tubulin assembly inhibitors as anticancer agents by aryl ring reversal and conjunctive approach” (RSC Medicinal Chemistry, 2025):
Values joined by “and” are separate entries in the source; they are usually repeats but may differ in a detail not shown here. Equal entries are not always repeated. “Also recorded” adds a separate entry of the source. Where two headings read alike, the source gives them in different places.

Legend:
tubulin [1] = experiment: Inhibition of [3H]colchicine binding to tubulin; conditions: for Colch. binding (% ± SD): inhibition of [3H]colchicine binding, tubulin, [3H]colchicine, inhibitor at 1, 5 and 5 μM
Method: The reaction mixtures contained 1.0 μM tubulin, 5.0 μM [^3H]colchicine, and 5.0 or 1.0 μM inhibitor, as indicated, and were incubated for 10 min at 37 °C. Complete details were described previously.[36]

tubulin [2] = experiment: Inhibition of tubulin polymerization (tubulin assembly, turbidity at 350 nm); assay type: biochemical; conditions: tubulin at 10 μM, read-out: Tubulin IC50 ± SD
Method: The assembly reaction mixtures contained 0.8 M monosodium glutamate (pH 6.6 with HCl in a 2 M stock solution), 10 μM tubulin, 4% (v/v) DMSO, and varying concentrations of drug. Following a 15 min preincubation at 30 °C, samples were chilled on ice, GTP to 0.4 mM was added, and turbidity development was followed at 350 nm in a temperature-controlled recording spectrophotometer for 20 min at 30 °C. The extent of reaction was measured. Full experimental details were previously described.[35]

[3] = system: MCF-7 human breast carcinoma cells; experiment: MCF-7 cell growth inhibition; assay type: cell-based; conditions: Homo sapiens, read-out: MCF-7 IC50 ± SD
BX-PC3 spheroids = experiment: 3D culture (spheroids) from BX-PC3 cells; assay type: cell-based; conditions: 320 nM for 48 h
Method: (§1) 3D culturing of BX-PC3 and HCT116 cells were performed seeding 500 cells/well into ultra-low attachment 96-well round-bottomed plates and cultured in supplemented RPMI and DMEM, respectively, at 37 °C under […] atmosphere for 7 days, until spheroids were formed. To evaluate the effect of compound 4 on spheroid growth, a range of doses (10–320 nM) was added to the cell suspension after spheroid formation, and the culture was maintained for 48 h. Spheroid diameters wwere measured using the ZEISS ZEN imaging software from the pictures obtained with an inverted optical microscope (Axio Vert A1, Zeiss, Oberkochen, Germany).

[4] = system: HCT116 colon cancer cells; experiment: HCT116 cell viability (MTS assay); assay type: cell-based; conditions: inhibition of growth of HCT116 colon cancer cells, incubation time 48 h
Method: (§2) MCF-7 breast carcinoma cells were obtained from the National Cancer Institute drug screening laboratory. HCT116 cell line was grown in Dulbecco's modified Eagle's medium (DMEM). BX-PC3 cells were grown in RPMI-1640 medium. Both media were supplemented with 10% fetal bovine serum (FBS), 100 U mL^−1 penicillin, […] streptomycin and 1% of L-glutamine. Cell lines were cultured at 37 °C in 5% CO2 and 95% air in a humidified incubator. T-ALL (Jurkat) cells were grown in RPMI-1640 medium. Both media were supplemented with 115 units per mL of penicillin G, 115 μg mL^−1 of streptomycin, and 10% fetal bovine serum (FBS, all purchased from Invitrogen, Milan, Italy). Cancer cells were seeded in tissue treated, flat bottom, 384-well plates (Corning, Corning, NY, USA) in 24 μL of complete medium per well, using a Microlab STAR 96-CORE liquid handling system (Hamilton Bonaduz, Bonaduz, Switzerland).
(§3) Cell viability of HCT116 and BX-PC3 cells was determined using the 3-(4,5-dimethylthiazol-2-yl)-5-(3-carboxymethoxyphenyl)-2-(4-sulfophenyl)-2H-tetrazolium (MTS) colorimetric assay.[38] […] After 48 h of growth, the MTS reagent was added to each well and absorbance at […] was measured by a microplate reader (Victor, PerkinElmer). The results were expressed as % relative to control cells (100%) and IC50 values were calculated using GraphPad Prism statistics software by nonlinear regression analysis.

HCT116 spheroids = experiment: 3D culture (spheroids) from HCT116 cells; assay type: cell-based; conditions: 160 nM for 48 h
Method: as §1

[5] = system: BX-PC3 pancreatic cancer cells; experiment: BX-PC3 cell viability (MTS assay); assay type: cell-based; conditions: Homo sapiens, BXPC-3; inhibition of growth of BX-PC3 pancreatic cancer cells; incubation time 48 h
Method: as §2, §3

[6] = system: Jurkat T lymphocyte cancer cells; experiment: Jurkat (T-ALL) cell viability (resazurin assay); assay type: cell-based; conditions: Homo sapiens, 96 h, inhibition of growth of Jurkat T lymphocyte cancer cells, incubation time 96 h
Method: as §2, with “Cancer cells were seeded in tissue treated, flat bottom, 384-well plates (Corning, Corning, NY, USA) in 24 μL of complete medium per well, using a Microlab STAR 96-CORE liquid handling system (Hamilton Bonaduz, Bonaduz, Switzerland).” left out
For T-ALL, drug stock solutions were prepared for each compound by dissolving them at 10 mM in DMSO. […] The fluorescence signal was measured at 590 nm using a Spark 10 M spectrophotometer (Tecan Group Ltd., Mannedorf, Switzerland). Only plates with Z′ > 0.5 were further analyzed for the drug screening. Raw data were normalized according to the following equation: cell viability (%) = (x − POS)/(NEG − POS) × 100, where x is the relative fluorescence units (RFU) collected from each single well, NEG is the mean of intraplate negative controls (DMSO, corresponding to 100% cell viability), and POS is the mean of intraplate positive controls (benzethonium chloride 75 μM, equal to 0% cell viability). […]

[7] = MCF7, 96 h, cells grown for 96 h

Structure (SMILES): COc1cc(C(=O)c2cn(-c3ncccn3)cc2-c2ccc(F)cc2)cc(OC)c1OC [Compound 18, (4-(4-Fluorophenyl)-1-(pyrimidin-2-yl)-1H-pyrrol-3-yl)(3,4,5-trimethoxyphenyl)methanone]
- Colch. binding (% ± SD) (tubulin [1]): 70 ± 1%
- IC50 (tubulin [2]): 2400 ± 80 nM
- IC50 ([3]; MCF7, cells grown for 96 h): 150 ± 7 nM

Structure (SMILES): COc1cc(C(=O)c2cn(-c3cccnc3)c3ccc(Cl)cc23)cc(OC)c1OC [Compound 26, (5-Chloro-1-(pyridin-3-yl)-1H-indol-3-yl)(3,4,5-trimethoxyphenyl)methanone]
- Colch. binding (% ± SD) (tubulin [1]): 23 ± 4%
- IC50 (tubulin [2]): 1500 ± 300 nM
- IC50 [3, 7]: 306 ± 13.4 nM

Structure (SMILES): COc1cc(C(=O)c2cn(-c3ncccn3)cc2/C=C/c2ccccc2)cc(OC)c1OC [Compound 23, (E)-(1-(pyrimidin-2-yl)-4-styryl-1H-pyrrol-3-yl)(3,4,5-trimethoxyphenyl)methanone]
- Colch. binding (% ± SD) (tubulin [1]): 65 ± 5%
- IC50 (tubulin [2]): 770 ± 30 nM
- IC50 ([3]; MCF7, cells grown for 96 h): 270 ± 10 nM

Structure (SMILES): COc1cc(C(=O)c2cn(-c3ncccn3)c3ccc(C#N)cc23)cc(OC)c1OC [Compound 29, 1-(Pyrimidin-2-yl)-3-(3,4,5-trimethoxybenzoyl)-1H-indole-5-carbonitrile]
- Colch. binding (% ± SD) (tubulin [1]): 42 ± 5%
- IC50 (tubulin [2]): 1300 ± 70 nM
- IC50 [3, 7]: 230 ± 7 nM

Structure (SMILES): COc1ccc(-c2cn(-c3ccccn3)cc2C(=O)c2cc(OC)c(OC)c(OC)c2)cc1 [Compound 4, (4-(4-Methoxyphenyl)-1-(pyridin-2-yl)-1H-pyrrol-3-yl)(3,4,5-trimethoxyphenyl)methanone]
- Spheroid diameter and morphology (BX-PC3 spheroids): altered the morphology of treated spheroids; also recorded: significant reduction of spheroid diameter
- IC50 ([4]; Homo sapiens, HCT-116, 48 h): 18 nM
- IC50 [4]: 28 nM
- Colch. binding (% ± SD) (tubulin [1]): 78% and 78 ± 1%
- Inhibition of [3H]colchicine binding (tubulin [1]; inhibitor at 1 μM, tubulin 1 μM, [3H]colchicine 5 μM): 76%
- Spheroid diameter and morphology (HCT116 spheroids): altered the morphology of treated spheroids; also recorded: significant reduction of spheroid diameter
- IC50 [5]: 17 nM
- IC50 [6]: 41 nM
- IC50 (tubulin [2]): 190 ± 6 nM
- IC50 ([3]; MCF7, cells grown for 96 h): 9.6 ± 0.8 nM

Structure (SMILES): COc1cc(C(=O)c2cn(-c3cccnc3)cc2-c2ccc(Cl)cc2)cc(OC)c1OC [Compound 11, (4-(4-Chlorophenyl)-1-(pyridin-3-yl)-1H-pyrrol-3-yl)(3,4,5-trimethoxyphenyl)methanone]
- Colch. binding (% ± SD) (tubulin [1]): 29 ± 4%
- IC50 (tubulin [2]): 1500 ± 200 nM
- IC50 ([3]; MCF7, cells grown for 96 h): 1500 ± 400 nM
